Source: patent publication US12036300B2, “Methods and compositions for improving skin” (L'OREAL, priority 2021, dated 2024)

Assays:
COX-2 = test: qRT-PCR gene expression of COX-2 in NHEM after 10 days of treatment; assay type: cell-based, human; conditions: FIG. 3A
Method: (§1) The efficacy of acetyl trifluoromethylphenyl valylglycine to modulate key gene markers in the inflammatory pathway as it relates to post inflammatory hyperpigmentation conditions was evaluated. Specifically, four well plates were seeded with a single cell culture of normal human epidermal melanocyte (NHEM), and grown in a culture medium (namely, culture medium no. M254500, obtained from ThermoFisher™) and supplemented with Gibco™ human melanocyte growth supplement (namely, Human Melanocyte Growth Supplement-2 no. S0165, obtained from ThermoFisher™) at a density of 10,000 cells/cm^2 for 3 to 4 days.
(§2) The culture medium was then replaced by culture mediums containing different treatments. Specifically, the cell cultures were treated with 10 μL of one of Compositions C-E once a day for ten days (except weekends). After 10 days, the cells were trypsinized and centrifuged at 180×gravity for 7 minutes followed by RNA isolation using a QIAshredder cell lysate homogenizer no. […] The RNA was then quantified using the NanoDrop Spectrophotometer.
(§3) After RNA isolation was completed, samples of 1 μg of RNA from each cell culture was used for cDNA reactions for reverse transcription. […] The ΔΔCt values were then determined for each biological replicate by normalizing to the appropriate untreated control average ΔCt value. The ΔΔCt values were then used to calculate relative quantification (RQ) values.

p38 MAPK = test: qRT-PCR gene expression of p38 in NHEM after 10 days of treatment; assay type: cell-based, human; conditions: FIG. 3B
Method: as §1, §2, §3

[1] = test system: tri-culture model (Normal Human Epidermal Melanocytes, Normal Human Epidermal Keratinocytes, and Normal Human Dermal Fibroblast); test: Melanin synthesis inhibition in tri-culture model; assay type: cell-based; conditions: 100 μM, tri-culture model (K/M/F), once a day for 10 days; FIG. 5
Method: (§4) Tri-culture models, co-culture models, and single cell culture models were treated with a composition containing acetyl trifluoromethylphenyl valylglycine to assess the effects on different skin cells. Specifically, the three cultures for each of the tri-culture models (Normal Human Epidermal Melanocytes, Normal Human Epidermal Keratinocytes, and Normal Human Dermal Fibroblast), co-culture models (Normal Human Epidermal Melanocytes and Normal Human Epidermal Keratinocytes), and single cell culture models (Normal Human Epidermal Melanocytes) were grown for four days. The cultures were then treated once a day for 10 days with a composition containing 10% DMSO, water, and lipoic acid (Composition G) in an amount to deposit […] to the cell culture models, a composition containing 10% DMSO, water, and acetyl trifluoromethylphenyl valylglycine (Composition H) in an amount to deposit […] to the cell culture models, or a composition containing 10% DMSO, water, and acetyl trifluoromethylphenyl valylglycine (Composition I) in an amount to deposit […] to the cell culture models. The media for the cultures was changed each day over the ten-day period.
(§5) After the 10 days, the cells of the culture were lysed and the melanin content was measured using a procedure and equipment similar to that described in Example 2. […]

[2] = test system: single cell culture models (Normal Human Epidermal Melanocytes); test: Melanin synthesis inhibition in single cell culture model; assay type: cell-based; conditions: FIG. 5
Method: as §4, §5

[3] = test system: co-culture models (Normal Human Epidermal Melanocytes and Normal Human Epidermal Keratinocytes); test: Melanin synthesis inhibition in co-culture model; assay type: cell-based; conditions: co-culture on melanocytes and keratinocytes, once a day for 10 days; FIG. 5
Method: as §4, §5

[4] = test system: human primary melanocytes; test: Melanin content of human primary melanocyte cultures treated for ten days, with or without prostaglandin E2; assay type: cell-based; conditions: FIGS. 1 and 2
Method: Six cultures of human primary melanocytes were grown for four days. Thereafter, the cultures were treated with 10 μL of one of Compositions A-E each day for ten days. Composition A contained 0.005 wt. % of acetyl trifluoromethylphenyl valylglycine, 2 wt. % ethanol, and the remainder being water. Composition B contained 0.05 wt. % of acetyl trifluoromethylphenyl valylglycine, 2 wt. % ethanol, and the remainder being water. Composition C contained 30 nM of prostaglandin E2, 2 wt. % ethanol, and the remainder being water. Composition D contained 0.005 wt. % of acetyl trifluoromethylphenyl valylglycine, 30 nM of prostaglandin E2, 2 wt. % ethanol, and the remainder being water. Composition E contained 0.05 wt. % of acetyl trifluoromethylphenyl valylglycine, 30 nM of prostaglandin E2, 2 wt. % ethanol, and the remainder being water. All weight percentages for Compositions A-E were based on the total weight of the respective composition. […]
After the 10 days, the cells of the culture were lysed and the melanin content was measured. Specifically, the cells were stained with Fontana Masion Staining and measured with a plate reader. A BCA assay was performed to quantify the protein concentration. […] To eliminate the melanin content caused by increased NHEM cell number in the system, the final melanin level was calculated by dividing the protein content in each culture. […]

[5] = with 30 nM prostaglandin E2, NHEM
[6] = prostaglandin E2 alone (30 nM), NHEM

| SMILES | level of COX-2 induced by prostaglandin E2 (COX-2; [5]) | level of P38 MAPK induced by prostaglandin E2 (p38 MAPK; [5]) | L-Tyrosine-induced melanin synthesis [1] | inhibitory effect on melanin synthesis relative to tri-culture ([2]; melanocytes cultures compared with tri-culture) | melanin synthesis ([2]; melanocytes cultures, once a day for 10 days) | melanin synthesis [3] | melanin synthesis after induction by prostaglandin E2 ([4]; with 30 nM prostaglandin E2, once a day for ten days, melanin normalised to protein content) | COX-2 expression (COX-2; [6]) | p38 MAPK expression (p38 MAPK; [6]) | melanin production ([4]; prostaglandin E2 alone (30 nM), once a day for ten days) |
| --- | --- | --- | --- | --- | --- | --- | --- | --- | --- | --- |
| CC(=O)N(c1cccc(C(F)(F)F)c1)C(C(=O)NCC(=O)O)C(C)C (stereo not shown) [acetyl trifluoromethylphenyl valylglycine] | significantly attenuated | significantly attenuated | inhibited L-Tyrosine-induced melanin synthesis | less than the observed in the tri-culture | an inhibitory effect was observed | did not appear to inhibit melanin synthesis | reduces melanin synthesis |  |  |  |
| CCCCC[C@H](O)/C=C/[C@H]1[C@H](O)CC(=O)[C@@H]1C/C=C\CCCC(=O)O [prostaglandin E2, reference compound] |  |  |  |  |  |  |  | triggered the cascade | triggered the cascade | stimulates melanin production |
